Data published in US20240051968A1, “METHODS FOR TREATING SPINOCEREBELLAR ATAXIA TYPE 3” (PTC Therapeutics, Inc., priority 2021, published 2024).

How the values were obtained:
ATXN3 pre-mRNA = test: RT-qPCR Assay to Quantify Exon 4 Skipping in ATXN3 pre-mRNA in Cells; format: cell-based; settings: cells incubated with compound 24 h, 7-point concentration curve, GAPDH control
Procedure: (§1) RT-qPCR Assay to Quantify Exon 4 Skipping in ATXN3 pre-mRNA in Cells Test compounds were serially diluted 3.16-fold in 100% DMSO to generate a 7-point concentration curve. Aliquots of 0.5 μL of diluted compounds were transferred to a 96-well flat bottom plate by a liquid handler. An aliquot of 0.5 μL DMSO was also transferred to separate wells and used as controls. Duplicate samples were set up for each compound concentration and for the DMSO control.
Cells were thawed and incubated in cell culture media (DMEM, 10% FBS, and 1% antibiotic cocktail) for 72 h. Cells were trypsinized, counted, and re-suspended to a concentration of 100,000 cells/mL in cell culture media. A 100 μL aliquot of the cell suspensions were plated at 10,000 cells per well in the compound containing 96 well microtiter plate and incubated for in a cell culture incubator (37° C., 5% CO2, 100% relative humidity).
After 24 h, media was aspirated from the cells and 50 μL of the RCL2 lysis buffer (10 mM Tris-HCL pH 7.4, 150 mM NaCl, 0.33% IGEPAL® CA-630) was added to each well and incubated at room temperature for 1 min. Chilled nuclease free water (50 μL per well) was added and the plates were immediately transferred on ice. After 1 min on ice, plates were frozen at −80° C. overnight.
Preparation of RT-qPCR Reaction Mixture:
An aliquot of 2 μL/well of the cell lysates was transferred using the liquid handler to the Armadillo 384-Well PCR plate containing 8 μL/well of the RT-qPCR reaction mixture that was prepared as detailed above. The plates were then sealed with MicroAmp™ Optical Adhesive Film followed by spinning down for 1 min and placed in the CFX384 thermocycler (BioRad).
The RT-qPCR was carried out at the following temperatures for the indicated time: • Step 1: 48° C. (30 min) • Step 2: 95° C. (10 min) • Step 3: 95° C. (15 sec) • Step 4: 60° C. (1 min); then, repeated Steps 3 and 4 for a total of 40 cycles.
The percent exon 4 skipping was calculated for each dose of compound treatment using Equations 1 and 2.
Data were fit to a dose response curve and the IC50 was interpolated using XLfit® statistical and curve fitting package.
An IC50 value between >2.0 μM and ≤3.0 μM is indicated by one star (*). […] IC50 value between >0.5 μM and ≤1.0 μM is indicated by four stars (****). An IC50 value ≤0.5 μM is indicated by five stars (*****).

[1] = system: Total ATXN3 (tATXN3) protein; test: Endogenous Total ATXN3 (tATXN3) Protein Assay (MSD immunoassay of cell lysates); format: cell-based; settings: cells incubated with compound 48 h; 7-point concentration curve; MSD detection in cell lysate
Procedure: Endogenous Total ATXN3 (tATXN3) Protein Assay
Meso Scale Discovery (MSD) 96-well or 384-well plates were coated overnight at 4° C. with Ataxin 3 mouse monoclonal antibody (Invitrogen, MA3-082) at a concentration of 0.5 μg/mL in PBS (30 μL per well). Plates were then washed three times with 300 μL wash buffer (0.05% TWEEN®-20, polyethylene glycol sorbitan monolaurate, in PBS) and blocked (Meso Scale Diagnostics, R93BA-1; 5% BSA in PBS) for 2 h at room temperature with rotational shaking and then washed three times with wash buffer.
as §1, with “Test” for “RT-qPCR Assay to Quantify Exon 4 Skipping in ATXN3 pre-mRNA in Cells Test”
Cells were thawed and incubated in cell culture media (DMEM, 10% FBS, and 1% antibiotic cocktail) for 72 h. Cells were trypsinized, counted, and re-suspended to a concentration of 100,000 cells/mL in cell culture media. A 100 μL aliquot of the cell suspensions were plated at 10,000 cells per well in the compound containing 96 well microtiter plate and incubated for in a cell culture incubator (37° C., 5% CO2, 100% relative humidity). After 48 h, the medium was removed and 50-100 μL of lysis buffer (Meso Scale Diagnostics, R60TX-2) containing 1× halt protease inhibitor cocktail of (Thermo Scientific, Halt™ Protease Inhibitor Cocktail, 78430) per well was added to cells to provide a “cell lysate”. The plate was placed on a shaker at 4° C. for 30 minutes, then stored at −80° C.
Cell lysate samples (25 μL) were transferred to the antibody-coated MSD plate and incubated overnight at 4° C. After removal of the lysates, the plate was washed three times with wash buffer, and 25 μL of Ataxin 3 recombinant rabbit monoclonal antibody (Invitrogen, #702788) secondary antibody (diluted to 0.25 μg/mL in 0.05% TWEEN®-20 in blocking buffer) was added to each well and incubated with shaking for 1-2 h at room temperature. Following incubation with the secondary antibody, the wells were rinsed with wash buffer and then […] Anti Rabbit Antibody Goat SULFO-TAG Labeled (Meso Scale Diagnostics, R32AB-1) detecting antibody (diluted to 0.25 μg/mL in 0.05% TWEEN®-20 in blocking buffer) was added to each well and incubated with shaking for 1 h at room temperature. After rinsing three times with wash buffer, 150 μL of Read Buffer T with surfactant (tris-based buffer containing tripropylamine, Meso Scale Diagnostics, R92TC-1) were added to each empty well, and the plate was imaged on a SI 6000 imager (MSD) according to manufacturers' instructions provided for 96- or 384-well plates.

Compound | IC50, exon 4 skipping in ATXN3 pre-mRNA (ATXN3 pre-mRNA) | IC50 (average), total ATXN3 protein [1] | IC50 (ATXN3 pre-mRNA) [nM] | IC50 [1] [nM]
C[C@H](N)Cc1cc2nc(Cl)cc(NCc3ccco3)c2s1 [Cpd 16, 2-[(2S)-2-aminopropyl]-5-chloro-N-[(furan-2-yl)methyl]thieno[3,2-b]pyridin-7-amine] | – | – | ≤ 500 | ≤ 500
N[C@@H](CO)Cc1cc2nc(Cl)cc(NCc3ccco3)c2s1 [Cpd 17, (2R)-2-amino-3-(5-chloro-7-{[(furan-2-yl)methyl]amino}thieno[3,2-b]pyridin-2-yl)propan-1-ol] | – | – | ≤ 500 | ≤ 500
Cc1c(C[C@H](C)N)sc2c(NCc3ccco3)cc(Cl)nc12 [Cpd 18, 2-[(2S)-2-aminopropyl]-5-chloro-N-[(furan-2-yl)methyl]-3-methylthieno[3,2-b]pyridin-7-amine] | – | – | ≤ 500 | ≤ 500
Cc1c(C[C@H](C)N)sc2c(NCc3ccccc3F)cc(Cl)nc12 [Cpd 29, 2-[(2S)-2-aminopropyl]-5-chloro-N-[(2-fluorophenyl)methyl]-3-methylthieno[3,2-b]pyridin-7-amine] | – | – | ≤ 500 | ≤ 500
Cc1c(C[C@H](C)N)sc2c(NCc3ccco3)ccnc12 [Cpd 34, 2-[(2S)-2-aminopropyl]-N-[(furan-2-yl)methyl]-3-methylthieno[3,2-b]pyridin-7-amine] | – | – | ≤ 500 | ≤ 500
Cc1c(C[C@H](C)N)sc2c(NCc3ccncc3F)cc(Cl)nc12 [Cpd 35, 2-[(2S)-2-aminopropyl]-5-chloro-N-[(3-fluoropyridin-4-yl)methyl]-3-methylthieno[3,2-b]pyridin-7-amine] | – | – | ≤ 500 | ≤ 500
C[C@H](N)Cc1sc2c(NCc3ccco3)cc(Cl)nc2c1Cl [Cpd 36, 2-[(2S)-2-aminopropyl]-3,5-dichloro-N-[(furan-2-yl)methyl]thieno[3,2-b]pyridin-7-amine] | – | – | ≤ 500 | ≤ 500
N[C@@H](CO)Cc1sc2c(NCc3ccco3)cc(Cl)nc2c1Cl [Cpd 39, (2R)-2-amino-3-(3,5-dichloro-7-{[(furan-2-yl)methyl]amino}thieno[3,2-b]pyridin-2-yl)propan-1-ol] | – | – | ≤ 500 | ≤ 500
COC[C@H](N)Cc1sc2c(NCc3ccco3)cc(Cl)nc2c1Cl [Cpd 40, 2-[(2R)-2-amino-3-methoxypropyl]-3,5-dichloro-N-[(furan-2-yl)methyl]thieno[3,2-b]pyridin-7-amine] | – | – | ≤ 500 | ≤ 500
N[C@@H](CO)Cc1sc2c(NCc3ccco3)cc(Cl)nc2c1Br [Cpd 41, (2R)-2-amino-3-(3-bromo-5-chloro-7-{[(furan-2-yl)methyl]amino}thieno[3,2-b]pyridin-2-yl)propan-1-ol] | – | – | ≤ 500 | ≤ 500
CN[C@@H](C)Cc1sc2c(NCc3ccco3)cc(Cl)nc2c1C [Cpd 42, 5-chloro-N-[(furan-2-yl)methyl]-3-methyl-2-[(2S)-2-(methylamino)propyl]thieno[3,2-b]pyridin-7-amine] | – | – | 500 to 1000 | ≤ 500
COC[C@H](N)Cc1sc2c(NCc3ccco3)cc(Cl)nc2c1Br [Cpd 44, 2-[(2R)-2-amino-3-methoxypropyl]-3-bromo-5-chloro-N-[(furan-2-yl)methyl]thieno[3,2-b]pyridin-7-amine] | – | – | ≤ 500 | ≤ 500
COC[C@H](N)Cc1sc2c(NCc3ccco3)cc(Cl)nc2c1C [Cpd 45, 2-[(2R)-2-amino-3-methoxypropyl]-5-chloro-N-[(furan-2-yl)methyl]-3-methylthieno[3,2-b]pyridin-7-amine] | – | – | ≤ 500 | ≤ 500
C[C@H](N)Cc1sc2c(NCc3ccco3)cc(Cl)nc2c1C1CC1 [Cpd 51, 2-[(2S)-2-aminopropyl]-5-chloro-3-cyclopropyl-N-[(furan-2-yl)methyl]thieno[3,2-b]pyridin-7-amine] | – | – | ≤ 500 | ≤ 500
C[C@H](N)Cc1sc2c(NCc3cccs3)cc(Cl)nc2c1Cl [Cpd 52, 2-[(2S)-2-aminopropyl]-3,5-dichloro-N-[(thiophen-2-yl)methyl]thieno[3,2-b]pyridin-7-amine] | – | – | ≤ 500 | ≤ 500
C[C@H](N)Cc1sc2c(NCc3cccs3)cc(Cl)nc2c1Br [Cpd 53, 2-[(2S)-2-aminopropyl]-3-bromo-5-chloro-N-[(thiophen-2-yl)methyl]thieno[3,2-b]pyridin-7-amine] | – | – | ≤ 500 | ≤ 500
Cc1c(C[C@H](C)N)sc2c(NCc3cccs3)cc(C#N)nc12 [Cpd 54, 2-[(2S)-2-aminopropyl]-3-methyl-7-{[(thiophen-2-yl)methyl]amino}thieno[3,2-b]pyridine-5-carbonitrile] | – | – | ≤ 500 | ≤ 500
Cc1c(C[C@H](C)N)sc2c(NCc3nccs3)cc(Cl)nc12 [Cpd 57, 2-[(2S)-2-aminopropyl]-5-chloro-3-methyl-N-[(1,3-thiazol-2-yl)methyl]thieno[3,2-b]pyridin-7-amine] | – | – | ≤ 500 | ≤ 500
Cc1c(C[C@@H](N)CO)sc2c(NCc3ccco3)cc(Cl)nc12 [Cpd 58, (2R)-2-amino-3-(5-chloro-7-{[(furan-2-yl)methyl]amino}-3-methylthieno[3,2-b]pyridin-2-yl)propan-1-ol] | – | – | ≤ 500 | ≤ 500
Cc1c(C[C@@H](N)CC(C)C)sc2c(NCc3cccs3)cc(Cl)nc12 [Cpd 61, 2-[(2S)-2-amino-4-methylpentyl]-5-chloro-3-methyl-N-[(thiophen-2-yl)methyl]thieno[3,2-b]pyridin-7-amine] | – | – | ≤ 500 | ≤ 500
N[C@H](CF)Cc1sc2c(NCc3cccs3)cc(Cl)nc2c1Br [Cpd 63, 2-[(2S)-2-amino-3-fluoropropyl]-3-bromo-5-chloro-N-[(thiophen-2-yl)methyl]thieno[3,2-b]pyridin-7-amine] | – | – | 1500 to 2000 | > 2000

Further lines, with some results ahead:

IC50, exon 4 skipping in ATXN3 pre-mRNA (ATXN3 pre-mRNA) | IC50 (average), total ATXN3 protein [1] | Compound | IC50 (ATXN3 pre-mRNA) [nM] | IC50 [1] [nM]
inactive | inactive | Clc1cc(NCc2ccco2)c2scc(Cl)c2n1 [Cpd 6, 3,5-dichloro-N-[(furan-2-yl)methyl]thieno[3,2-b]pyridin-7-amine] | – | –
– | inactive | Clc1cc(NCc2ccco2)c2scc(Br)c2n1 [Cpd 7, 3-bromo-5-chloro-N-[(furan-2-yl)methyl]thieno[3,2-b]pyridin-7-amine] | 1000 to 1500 | –
inactive | inactive | Cc1c(C[C@H](N)CF)sc2c(NCc3ccco3)cc(Cl)nc12 [Cpd 59, 2-[(2S)-2-amino-3-fluoropropyl]-5-chloro-N-[(furan-2-yl)methyl]-3-methylthieno[3,2-b]pyridin-7-amine] | – | –
